Measured values: patent publication US20150175655A1 (priority 2012, published 2015)
pEC50: −log10 of the molar value. Like-named read-outs stand apart in the source and are kept apart here.

What was measured:
[1] = rcm bond, Zhan 1B, DCE
[2] = tested on: genotype 3a stable HCV replicon (S52 strain) in Huh-7-derived cells; assay: Stable subgenomic HCV replicon EC50, genotype 3a (Renilla luciferase); format: cell-based; details: Hepatitis C virus, 72 h, read-out: EC50 3A RLUC
Procedure: (§1) Antiviral potency (EC50) was determined in both stable subgenomic HCV replicon cell lines and transient-transfected HCV replicon cells. The term half maximal effective concentration (EC50) refers to the concentration of a drug which induces a response halfway between the baseline and maximum after the exposure time specified below.
(§2) Stable subgenomic HCV replicons for genotype 1a, 1 b, 2a, 3a, and 4a were established in Huh-7-derived cells as described by Lohmann et al (Lohmann V, Korner F, Koch J, et al Replication of subgenomic hepatitis C virus RNAs in a hepatoma cell line. Science 1999; 285:119-3). Each stable cell line contains a bicistronic HCV replicon that encodes a humanized Renilla luciferase (hRLuc) reporter gene fused to a selectable neomycin-resistance gene, followed by an EMCV IRES and the NS3-NS5B coding region of HCV. […] Luciferase activity was measured as a marker for intracellular HCV replication levels.
(§3) The genotype 1a stable replicon was derived from the H77 HCV strain and contained adaptive mutations P1496L and S2204I. The genotype 1 b stable replicon was derived from the Cont HCV strain and contained adaptive mutations E1202G, T1280I, and K1846T. […] The genotype 3a stable replicon was derived from the S52 HCV strain and contained adaptive mutations P1121 L, A1198T and S2210I (equivalent to S2204I in genotype 1). The genotype 4a stable replicon was derived from the ED43 HCV strain and contained adaptive mutations Q1691R and S2204I. All replicon cell lines were propagated in Huh-7-derived cells and maintained in Dulbecco's modified Eagle's Medium (DMEM) supplemented with 10% fetal bovine serum (FBS) and 0.5 mg/mL G418.
(§4) To perform EC50 assays, cells from each HCV replicon were dispensed into 384-well plates. Compounds were dissolved in DMSO at a concentration of 10 mM and diluted in DMSO using an automated pipetting instrument. Three-fold serially diluted compounds were directly added to the cells using an automated instrument. […] Seventy-two hours later, cells were lysed and Renilla luciferase activity were quantified as recommended by the manufacturer (Promega-Madison, Wis.). Non-linear regression was performed to calculate EC50 values.

[3] = tested on: genotype 1b stable HCV replicon in Huh-7-derived cells; assay: Stable subgenomic HCV replicon EC50, genotype 1b (Renilla luciferase); format: cell-based; details: Hepatitis C virus, stable replicon genotype 1b, 72 h, read-out: EC50 1B RLUC
Procedure: as §1, §2, §3, §4

[4] = tested on: genotype 1a stable HCV replicon (H77 strain) in Huh-7-derived cells; assay: Stable subgenomic HCV replicon EC50, genotype 1a (Renilla luciferase); format: cell-based; details: Hepatitis C virus, stable replicon genotype 1a, 72 h, read-out: EC50 1A RLUC
Procedure: as §1, §2, §3, §4

[5] = tested on: genotype 1b (Con1) wild-type transient HCV replicon in Huh-7-derived cells; assay: Transient-transfected HCV replicon EC50, genotype 1b wild type; format: cell-based; details: Hepatitis C virus; transient-transfected replicon genotype 1b wild type, 72 h; read-out: EC50 1B WT
[6] = tested on: genotype 2a stable HCV replicon (JFH-1 strain) in Huh-7-derived cells; assay: Stable subgenomic HCV replicon EC50, genotype 2a (Renilla luciferase); format: cell-based; details: Hepatitis C virus, stable replicon genotype 2a, 72 h, read-out: EC50 2A RLUC
Procedure: as §1, §2, §3, §4

[7] = tested on: genotype 1a transient HCV replicon, NS3/4a protease inhibitor resistant variant R155K, in Huh-7-derived cells; assay: Transient-transfected HCV replicon EC50, genotype 1a R155K; format: cell-based; details: Hepatitis C virus, 72 h, read-out: EC50 1A R155K
[8] = tested on: genotype 1b transient HCV replicon, NS3/4a protease inhibitor resistant variant D168A, in Huh-7-derived cells; assay: Transient-transfected HCV replicon EC50, genotype 1b D168A; format: cell-based; details: Hepatitis C virus, 72 h, read-out: EC50 1B D168A
[9] = tested on: genotype 1a (H77) wild-type transient HCV replicon in Huh-7-derived cells; assay: Transient-transfected HCV replicon EC50, genotype 1a wild type; format: cell-based; details: Hepatitis C virus; transient-transfected replicon genotype 1a wild type, 72 h; read-out: EC50 1A WT
[10] = tested on: genotype 4a stable HCV replicon (ED43 strain) in Huh-7-derived cells; assay: Stable subgenomic HCV replicon EC50, genotype 4a (Renilla luciferase); format: cell-based; details: Hepatitis C virus, 72 h, read-out: EC50 4A RLUC
Procedure: as §1, §2, §3, §4

## CC[C@@H]1[C@@H]2CN(C(=O)[C@H](C(C)(C)C)NC(=O)OC3(C(F)(F)F)CCCC3CCCC=Cc3nc4ccc(OC)cc4nc3O2)[C@@H]1C(=O)OC(C)(C)C (some centres unmarked)
[1]; from C=CCCCC1CCCC1(OC(=O)N[C@H](C(=O)N1C[C@H](Oc2nc3cc(OC)ccc3nc2C=C)[C@@H](CC)[C@H]1C(=O)OC(C)(C)C)C(C)(C)C)C(F)(F)F, 5.0 mM, 100.0 °C, 0.5 h
  ring closure, yield of all isomers: 84.7%

## COc1ccc2nc3c(nc2c1)O[C@H]1CN(C(=O)[C@H](C2(C)CCCC2)NC(=O)O[C@@H]2C[C@H]2CCCC=C3)[C@H](C(=O)OC(C)(C)C)[C@@H]1C
[1]; from C=CCCC[C@@H]1C[C@H]1OC(=O)N[C@H](C(=O)N1C[C@H](Oc2nc3cc(OC)ccc3nc2C=C)[C@@H](C)[C@H]1C(=O)OC(C)(C)C)C1(C)CCCC1, 5.03 mM, 83.0 °C, […]
  ring closure, yield of all isomers: 78%

## COc1ccc2nc3c(nc2c1)O[C@H]1CN(C(=O)[C@H](C(C)(C)C)NC(=O)O[C@@H]2CCN(C(C)=O)C2CCCCC3)[C@H](C(=O)N[C@]2(C(=O)NS(=O)(=O)C3(C)CC3)C[C@H]2C(F)F)[C@@H]1C (stereo partly drawn) [Example 80, (3aR,7S,10S,11S,12R)-1-acetyl-7-tert-butyl-N-[(1R,2R)-2-(difluoromethyl)-1-{[(1-methylcyclopropyl)sulfonyl]carbamoyl}cyclopropyl]-16-methoxy-11-methyl-5,8-dioxo-1,2,3,3a,5,6,7,8,11,12,20,21,22,23,24,24a-hexadecahydro-10H-9,12-methanopyrrolo[2′,3′:18,19][1,10,3,6]dioxadiazacyclononadecino[11,12-b]quinoxaline-10-carboxamide]
[2]
  pEC50: ≤ 4.35

## CC[C@@H]1[C@@H]2CN(C(=O)[C@H](C(C)(C)C)NC(=O)O[C@]3(C)CCC[C@H]3CCCC=Cc3nc4ccc(OC)cc4nc3O2)[C@@H]1C(=O)OC
[1]; from C=CCCC[C@@H]1CCC[C@@]1(C)OC(=O)N[C@H](C(=O)N1C[C@H](Oc2nc3cc(OC)ccc3nc2C=C)[C@@H](CC)[C@H]1C(=O)OC)C(C)(C)C, 19.9 mM, 80.0 °C, […]
  ring closure, yield of all isomers: 77.2%

## CC[C@@H]1[C@@H]2CN(C(=O)[C@H](C(C)(C)C)NC(=O)O[C@]3(C(F)(F)F)CCC[C@H]3CCCCCc3nc4ccc(OC)cc4nc3O2)[C@@H]1C(=O)N[C@]1(C(=O)NS(=O)(=O)C2CC2)C[C@H]1C(F)F [Example 11, (7S,10S,11S,12R)-7-tert-butyl-N-[(1R,2R)-1-[(cyclopropylsulfonyl)carbamoyl]-2-(difluoromethyl)cyclopropyl]-11-ethyl-16-methoxy-5,8-dioxo-3aR-(trifluoromethyl)-1,2,3,3a,5,6,7,8,11,12,20,21,22,23,24,24a-hexadecahydro-10H-9,12-methanocyclopenta[18,19][1,10,3,6]dioxadiazacyclononadecino[11,12-b]quinoxaline-10-carboxamide]
[3]
  pEC50: 7.77
[4]
  pEC50: 7.55
[5]
  pEC50: 8.03
[6]
  pEC50: 7.47
[7]
  pEC50: 6.80
[2]
  pEC50: 5.93
[8]
  pEC50: 6.22
[9]
  pEC50: 7.70
[10]
  pEC50: 7.72

## CCC[C@@H]1[C@@H]2CN(C(=O)[C@H](C(C)(C)C)NC(=O)O[C@@H]3C[C@H]3CCCC=Cc3nc4ccc(OC)cc4nc3O2)[C@@H]1C(=O)OC(C)(C)C
[1]; from C=CCCC[C@@H]1C[C@H]1OC(=O)N[C@H](C(=O)N1C[C@H](Oc2nc3cc(OC)ccc3nc2C=C)[C@@H](CCC)[C@H]1C(=O)OC(C)(C)C)C(C)(C)C, 5.0 mM, 100.0 °C, 1.0 h
  ring closure, yield of all isomers: 80.7%

## CC[C@@H]1[C@@H]2CN(C(=O)[C@H](C(C)(C)C)NC(=O)O[C@@]3(C(F)(F)F)CCC[C@H]3CCCCCc3nc4ccc(OC)cc4nc3O2)[C@@H]1C(=O)N[C@]1(C(=O)NS(=O)(=O)C2CC2)C[C@H]1C(F)F [Example 12, (7S,10S,11S,12R)-7-tert-butyl-N-[(1R,2R)-1-[(cyclopropylsulfonyl)carbamoyl]-2-(difluoromethyl)cyclopropyl]-11-ethyl-16-methoxy-5,8-dioxo-3a5-(trifluoromethyl)-1,2,3,3a,5,6,7,8,11,12,20,21,22,23,24,24a-hexadecahydro-10H-9,12-methanocyclopenta[18,19][1,10,3,6]dioxadiazacyclononadecino[11,12-b]quinoxaline-10-carboxamide]
[3]
  pEC50: 7.74
[4]
  pEC50: 7.47
[5]
  pEC50: 8.24
[6]
  pEC50: 7.60
[7]
  pEC50: 6.55
[2]
  pEC50: 5.70
[8]
  pEC50: 6.19
[9]
  pEC50: 7.85
[10]
  pEC50: 7.68
